Measurements taken from patent publication US5061795A, “Hexa-cyclic compound” (Daiichi Pharmaceutical Co., Ltd., priority 1987, dated 1991).
In brackets after ≈: the same amount, converted by molar mass. Read-outs that look alike come from different tables or passages of the source.

Columns and labels:
[1] = clinical tests conducted in the United States; cited from earlier work
nucleic acid synthesis = details: background statement; cited from earlier work
[2] = test system: P388 mouse leukemia cells; assay: Growth inhibition of P388 mouse leukemia cells, cell count after 72 hours; assay type: cell-based
Procedure: A test compound was added to a suspension containing P388 mouse leukemia cells (2×10^4 /ml) and the cells were cultured in 5% CO2 at […]. After 72 hours, the number of the cells were counted to determine the IC50 value.

[3] = test system: Mouse leukemia P388 cells; assay: MTT assay on mouse leukemia P388 cells, 72 hours; assay type: cell-based
Procedure: Mouse leukemia P388 cells, harvested from a pre-culture medium, were suspended in a fresh PRMI 1640 medium supplemented with 10% FCS (GIBCO) and inoculated in a volume of 0.05 ml at 2.5×10^3/ml cells per well in 96-well microplates. Following 24 hour incubation at 37° C. under 5% CO2 and 100 relative humidity, 0.05 ml of the culture medium or a culture medium containing a test compound was dispersed into each well. The cells in the medium were then incubated for 72 hours. At 4 hours before the end of incubation, 0.01 ml of MTT [3-(4,5-dimethylthiazol-2-yl)-2,5-diphenyl-2H-tetrazolium bromide] solution dissolved in phosphate-buffer saline at a concentration of 5 mg/ml was added. After 4 hour exposure with the MTT solution, the reaction was stopped by the addition of 0.2 ml/well of 1M HCl:i-propanol (1:24) followed by thorough mixing. The optical density of the solution was measured by EAR 400 (SLT Labinstruments, Austria) at 540 nm.

[4] = test system: P388 murine leukemia cells; assay: Antitumour effect against P388 murine leukemia in male CDF-1 mice (median survival time); assay type: in vivo, mouse; details: for Mice Survived for 40 days: intraperitoneal on day 1, CDF-1 mice; for T/C (median survival time of treated group against control group): intraperitoneal on day 1, P388 cells inoculated on day 0, CDF-1 mice
Procedure: P388 murine leukemia cells (1×10^6 /mouse) were inoculated into male CDF-1 mice (5-6 mice per group, age 7-10 weeks, weighing 21-34 g) on day 0, and the test compound was administered intraperitoneally on day 1.
The test compound were dissolved in water or physiological saline after having been converted into sodium salts, or suspended into a physiological saline containing 0.9% benzyl alcohol, 0.4% Tween 80, or 0.5% CMC.
The antitumour effect was evaluated by the percentage of the median survival time of the treated group (T) against that of the control group (C).

[5] = repeated in the table of Experimental Example 3, footnote *, read-out: IC50 (in parentheses; value obtained by determination in Experimental Example 2)

| SMILES | IC50 ([2]; cell count, read-out: IC50) [ng/mL] | IC50 [3] [ng/mL] | other results |
| --- | --- | --- | --- |
| CC[C@@]1(O)C(=O)OCc2c1cc1n(c2=O)Cc2cc3ccccc3nc2-1 [Camptothecin] | – | – | safety in clinical tests [1]: found to have a problem in view of safety; antitumour activity (nucleic acid synthesis): known to exhibit an antitumour activity because of its capability of inhibiting nucleic acid synthesis |
| CCC1(O)C(=O)OCc2c1cc1n(c2=O)Cc2c-1nc1ccc(O)c3c1c2CCC3 (stereo not shown) [Example 1, 9-ethyl-2,3-dihydro-4,9-dihydroxy-1H,12H-benzo[de]pyrano[3',4': 6,7]indolizino[1,2-b]quinoline-10,13(9H,15H)-dione] | 1.47 (≈ 3.63 nM) | 3.8 (≈ 9.4 nM) | IC50 [2, 5]: 1.47 ng/mL (≈ 3.63 nM); Mice Survived for 40 days ([4]; 240 mg/kg): 5 Out of 6; T/C (median survival time of treated group against control group) ([4]; 240 mg/kg): > 392% |
| CCC1(O)C(=O)OCc2c1cc1n(c2=O)Cc2c-1nc1ccc(C)c3c1c2CCO3 (stereo not shown) [Example 2, 9-ethyl-1,2-dihydro-9-hydroxy-4-methyl-12H-pyrano[4,3,2-de]pyrano[3',4':6,7]indolizino[1,2-b]quinoline-10,13(9H,15H)-dione] | 0.81 (≈ 2 nM) | – | Mice Survived for 40 days ([4]; 480 mg/kg): 4 Out of 6; T/C (median survival time of treated group against control group) ([4]; 480 mg/kg): > 376% |
| CCC1(O)C(=O)OCc2c1cc1n(c2=O)Cc2c-1nc1ccc(C)c3c1c2CCS3 (stereo not shown) [Example 3, 9-ethyl-1,2-dihydro-9-hydroxy-4-methyl-12H-thiino[4,3,2-de]pyrano[3',4':6,7]indolizino[1,2-b]quinoline-10,13(9H,15H)-dione] | 4.32 (≈ 10.3 nM) | – | Mice Survived for 40 days ([4]; 480 mg/kg): 5 Out of 6; T/C (median survival time of treated group against control group) ([4]; 480 mg/kg): > 400% |
| CCC1(O)C(=O)OCc2c1cc1n(c2=O)Cc2c-1nc1ccc(C)c3c1c2CCN3 (stereo not shown) [Example 4, 9-ethyl-1,2-dihydro-9-hydroxy-4-methyl-3H,12H-pyrano[3',4': 6,7]indolizino[1,2-c]benzo[ij][2,7]naphthilidine-10,13(9H,15H)-dione] | 3.73 (≈ 9.25 nM) | 4.46 (≈ 11.1 nM) | IC50 [2, 5]: 3.73 ng/mL (≈ 9.25 nM) |
| CCC1(O)C(=O)OCc2c1cc1n(c2=O)Cc2c-1nc1ccc(Cl)c3c1c2CCC3 (stereo not shown) [Example 5, 4-chloro-9-ethyl-2,3-dihydro-9-hydroxy-1H,12H-benzo[de]pyrano[3',4':6,7]indolizino[1,2-b]quinoline-10,13(9H,15H)-dione] | 3.3 (≈ 7.8 nM) | – | – |
| CCC1(O)C(=O)OCc2c1cc1n(c2=O)Cc2c-1nc1ccc(O)c3c1c2CC3 (stereo not shown) [Example 8, 8-ethyl-1,2-dihydro-3,8-dihydroxy-11H-cyclopenta[de]pyrano[3',4':6,7]indolizino[1,2-b]quinoline-9,12(8H,14H)-dione] | 3.03 (≈ 7.76 nM) | – | – |
| CCC1(O)C(=O)OCc2c1cc1n(c2=O)Cc2c-1nc1ccc(O)c3c1c2CCO3 (stereo not shown) [Example 11, 9-ethyl-1,2-dihydro-4,9-dihydroxy-12H-pyrano[4,3,2-de]pyrano[3',4':6,7]indolizino[1,2-b]quinoline-10,13(9H,15H)-dione] | 2.64 (≈ 6.5 nM) | 4.05 (≈ 9.97 nM) | IC50 [2, 5]: 2.64 ng/mL (≈ 6.5 nM) |
| CCC1(O)C(=O)OCc2c1cc1n(c2=O)Cc2c-1nc1ccc(C#N)c3c1c2CCS3 (stereo not shown) [Example 16, 4-cyano-1,2-dihydro-9-ethyl-9-hydroxy-12H-thiino[4,3,2-de]pyrano[3',4':6,7]indolizino[1,2-b]quinoline-10,13(9H,15H)dione] | 7.23 (≈ 16.8 nM) | – | Mice Survived for 40 days ([4]; 60 mg/kg): 4 Out of 6; T/C (median survival time of treated group against control group) ([4]; 60 mg/kg): 443% |
| CCC1(O)C(=O)OCc2c1cc1n(c2=O)Cc2c-1nc1ccc(N)c3c1c2CCS3 (stereo not shown) [Example 20, 4-amino-1,2-dihydro-9-ethyl-9-hydroxy-12H-thiino[4,3,2,-de]pyrano[3',4': 6,7]indolizino [1,2-b]quinoline-10,13(9H,15H)-dione] | 0.92 (≈ 2.18 nM) | – | – |
| CCC1(O)C(=O)OCc2c1cc1n(c2=O)Cc2c-1nc1cccc3c1c2CCS3 (stereo not shown) [Example 21, 1,2-dihydro-9-ethyl-9-hydroxy-12H-thiino[4,3,2,-de]pyrano[3',4': 6,7]indolizino[1,2-b]quinoline-10,13(9H,15H)-dione] | 3.41 (≈ 8.39 nM) | – | – |
| CC[C@@]1(O)C(=O)OCc2c1cc1n(c2=O)Cc2c-1nc1ccc(CN)c3c1c2CCS3.Cl [Example 31, (s)-4-aminomethyl-9-ethyl-1,2-dihydro-9-hydroxy-12H-thiino[4,3,2-de]pyrano[3',4':6,7]indolizino[1,2-b]quinoline-10,13(9H,15H)-dione hydrochloride] | – | 3.66 | – |
| CC[C@@]1(O)C(=O)OCc2c1cc1n(c2=O)Cc2c-1nc1ccc(CN)c3c1c2CCC3.Cl [Example 33, (s)-4-aminomethyl-9-ethyl-2,3-dihydro-9-hydroxy-1H,12H-benzo[de]pyrano[3',4':6,7]indolizino[1,2-b]quinoline-10,13(9H,15H)-dione hydrochloride] | – | 5.52 | – |
| CC[C@@]1(O)C(=O)OCc2c1cc1n(c2=O)Cc2c-1nc1ccc(CNC)c3c1c2CCS3.Cl [Example 36, (s)-9-ethyl-1,2-dihydro-9-hydroxy-4-methylaminomethyl-12H-thiino[4,3,2-de]pyrano[3',4':6,7]indolizino[1,2-b]quinoline-10,13(9H,15H)-dione hydrochloride] | – | 12.2 | – |
| CC[C@@]1(O)C(=O)OCc2c1cc1n(c2=O)Cc2c-1nc1ccc(CN)c3c1c2CCO3.Cl [Example 38, (s)-4-aminomethyl-9-ethyl-1,2-dihydro-9-hydroxy-12H-pyrano[4,3,2-de]pyrano[3',4':6,7]indolizino[1,2-b]quinoline-10,13(9H,15H)-dione hydrochloride] | – | 6.36 | – |
| CCC1(O)C(=O)OCc2c1cc1n(c2=O)Cc2c-1nc1ccc(N)c3c1c2CCC3 (stereo not shown) [Example 39, 4-amino-9-ethyl-2,3-dihydro-9-hydroxy-1H,12H-benzo[de]pyrano [3',3':6,7]indolizino[1,2-b]quinoline-10,13(9H,15H)-dione] | – | 2.97 (≈ 7.36 nM) | – |
